Assay results reported in ChEMBL document CHEMBL1145651, “A constituent of Pterocarpus marsupium, (-)-epicatechin, as a potential antidiabetic agent” (1983).

What was measured:
Assay type in all cases: functional
Conditions in all cases: route intraperitoneal
Rattus norvegicus [1] = assay: Antihyperglycemic activity in Wistar rat assessed as decrease in alloxan-induced blood glucose level at 30 mg/kg, ip administered 72 to 288 hrs after alloxan challenge
Rattus norvegicus [2] = assay: Antihyperglycemic activity in Wistar rat assessed as decrease in alloxan-induced blood glucose level at 30 mg/kg, ip pretreated 24 hrs before alloxan challenge
Rattus norvegicus [3] = assay: Antihyperglycemic activity in Wistar rat assessed as decrease in alloxan-induced blood glucose level at 30 mg/kg, ip administered 72 hrs after alloxan challenge
Rattus norvegicus [4] = assay: Antihyperglycemic activity in Wistar rat assessed as decrease in alloxan-induced blood glucose level at 30 mg/kg, ip administered 120 hrs after alloxan challenge
Rattus norvegicus [5] = assay: Antihyperglycemic activity in Wistar rat assessed as decrease in alloxan-induced blood glucose level at 30 mg/kg, ip administered 168 hrs after alloxan challenge
Rattus norvegicus [6] = assay: Antihyperglycemic activity in Wistar rat assessed as decrease in alloxan-induced blood glucose level at 30 mg/kg, ip administered 288 hrs after alloxan challenge

Oc1cc(O)c2c(c1)O[C@H](c1ccc(O)c(O)c1)[C@H](O)C2 [(-)-EPICATECHIN]
Activity (Rattus norvegicus [1]): 129 mg/dL | Activity (Rattus norvegicus [2]): 111 mg/dL | Activity (Rattus norvegicus [3]): 138 mg/dL | Activity (Rattus norvegicus [4]): 120 mg/dL | Activity (Rattus norvegicus [5]): 128 mg/dL | Activity (Rattus norvegicus [6]): 117 mg/dL
